{
  "source": "patent US8603529B2",
  "about": "“Polynucleotide aptamer-based cross-linked materials and uses thereof” (Smartcells, Inc., priority 2009, dated 2013)",
  "origin": "cited, not measured here",
  "molecular_target": "avidin (Gallus gallus, UniProt P02701)",
  "sequence (P02701 25-152, species assumed)": "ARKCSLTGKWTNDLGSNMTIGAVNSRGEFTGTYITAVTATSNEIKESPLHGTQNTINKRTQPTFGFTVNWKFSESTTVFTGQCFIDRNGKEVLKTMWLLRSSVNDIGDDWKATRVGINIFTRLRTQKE",
  "data": [
    {"smiles": "O=C(O)CCCC[C@@H]1SC[C@@H]2NC(=O)N[C@@H]21", "note": "[biotin]", "values": [
      {"measurement": "binding constant between biotin and avidin", "result": "10^15 M^−1"}
    ]}
  ]
}
